Laboratory results from patent publication US20250000907A1, “ENGINEERED IMMUNE CELLS WITH REDUCED SIRT6 EXPRESSION” (H. LEE MOFFITT CANCER CENTER AND RESEARCH INSTITUTE, INC., priority 2021, published 2025).

Experiments:
Assay type in all cases: cell-based, mouse
activated CD3+ T cells [1] = assay: Seahorse extracellular flux analysis (ECAR/OCR) of activated CD3+ T cells
Method: Spleens and/or lymph nodes (LN) were collected from C57BL/6J, Pmel and OT-II mice and were processed into single-cell suspensions. CD3+, CD4+ and CD8+ T cells were negatively enriched using Mouse Pan T cell, CD4^+ T cell and CD8^+ T Cell Isolation Kits™, respectively according to the manufacturer's instructions. The purity of the isolated cells was confirmed by flow cytometry (>95%). Purified T cells were cultured in complete RPMI 1640 medium (Thermo Fisher Scientific) supplemented with 10% (vol/vol) fetal bovine serum (FBS, Biowest) and 1% (vol/vol) penicillin/streptomycin (P/S, Thomas Scientific Inc.). T cells were activated with plate-bound anti-CD3 antibody (5 μg/ml, 145-2C11, BioXCell) for the indicated time periods. […]
(§1) Extracellular acidification rate (ECAR) and oxygen consumption rate (OCR) were measured using the Seahorse XF analyzer (Agilent technologies). […] For GST, ECAR and OCR were measured under basal conditions and in response to 10 mM glucose, 1 μM oligomycin and 50 mM 2-DG successively to calculate basal glycolytic rate, glycolytic capacity (in response to oligomycin), and glycolytic reserve (glycolytic capacity-basal rate). […] Results were normalized to total protein quantified using Pierce™ BCA Protein Assay Kit (Thermo Fisher Scientific).

[2] = test system: CD3+ TILs isolated from B16F10 tumor nodules; assay: Seahorse ECAR of TILs isolated from s.c. B16F10 melanoma tumors; conditions: TILs from s.c. B16F10 tumors in C57BL/6 mice, OSS vs. DMSO, FIG. 6F
Method: Anesthetized mice were injected subcutaneously (s.c.) into the hind limb with 2.5×10^5 B16F10 tumor cells in 200 μl of sterile PBS. Tumors were collected after 2 weeks and TILs were isolated for further analysis.
Lymphocytes from subcutaneous tumors were isolated by dicing the tissues followed by enzymatic digestion in PBS containing collagenase type 4 (2 mg/ml, Worthington Biochemical) and DNase I (0.25 mg/ml, Sigma-Aldrich) for 45 min with occasional shaking at 37° C. Cell suspensions were then twice filtered through 100 μm and 40 μm cell strainers (Thermo Fisher Scientific) to obtain single-cell suspension followed by a PBS wash and red blood cell lysis using RBC Lysis Buffer (Biolegend). […]
as §1

OT-II and Pmel T cells = assay: CFSE proliferation assay; conditions: upon antigenic stimulation ex vivo, 3 days, FIG. 7A
Method: Pmel cells and OT-II cells were first labelled with 5 μM of CellTrace™ carboxyl fluorescein succinimidyl ester (CFSE, Thermo Fisher Scientific) for 30 min at room temperature (RT) and then stimulated with gp100 or remained non-stimulated with and without Sirt6 inhibitor (OSS) for 3 days.

[3] = test system: Pmel T cells stimulated with gp100; assay: Intracellular granzyme B staining by flow cytometry; conditions: activated Pmel T cells, OSS vs. DMSO, FIG. 7B
Method: For intracellular cytokine staining, cells were firstly stimulated with phorbol 12-myristate 13-acetate (PMA, 10 ng/ml, Sigma) and ionomycin (1 μM/ml, Sigma) for 1 hour followed by GolgiPlug™ treatment (1% c, BD Biosciences) for 6 h and then stained with IFN-γ (BV711, BD Biosciences) and Granzyme B (Alexa647, Biolegend). Cells were acquired on a BD FACSymphony™ A5 and LSR II (Becton Dickinson), and data were analyzed with FlowJo software Version 10.0 software.

[4] = test system: Pmel T cells stimulated with gp100; assay: IFN-γ ELISPOT assay of Pmel T cells; conditions: activated Pmel T cells, OSS vs. DMSO, FIG. 7C
Method: The number of IFN-γ producing cells was evaluated in an ELISPOT assay. Briefly, mouse TILs were plated at 1×10^5 cells and co-cultured with 1×10^3 irradiated B16F10 tumor cells (50 Gray) in the presence of the indicated concentrations of OSS, in a 96-well nitrocellulose flat-bottomed plate (ELISPOT plate, Millipore) pre-coated with an anti-mouse IFN-γ antibody (AN-18, Mabtech, Inc.) and incubated for 48 hr at 37° C. For Pmel T cells, splenocytes were first stimulated with gp100 (1 μg/ml, Anaspec) for 48 hr in the presence of the indicated concentrations of OSS and then transferred to the ELISPOT plate pre-coated with an anti-mouse IFN-γ antibody (AN-18, Mabtech, Inc.) for an additional 48 hr. For human CD3+ T cells and TILs, cells were first stimulated with plate-coated anti-CD3 for 48 hr in the presence of vehicle or OSS at the indicated concentration and then transferred to the ELISPOT plate pre-coated with an anti-human IFN-γ antibody (1-DIK, Mabtech, Inc.). PMA (10 ng/ml, Sigma-Aldrich) was used as positive assay control. After washing steps and successive biotinylated anti-IFN-γ antibody (R4-6A2, Mabtech, Inc.) and Streptavidin-HRP (BD Bioscience) labeling, spots were detected using AEC Substrate Kit (BD Biosciences) and counted using an AID ELISPOT Reader System (Autoimmun Diagnostika GmbH).

B16F10 cells = assay: LDH release cytotoxic assay of Pmel T cells against B16F10 cells; conditions: Pmel T cells ex vivo, OSS vs. DMSO, FIG. 7D
Method: Evaluation of functional cytotoxic activity was performed using Pierce™ LDH Cytotoxicity Assay Kit (Thermo Fisher Scientific) according to the manufacturer's protocol. B16F10 cells or human NSCLC autologous tumor cells were used as target cells. Mouse CD8+ enriched T cells from gp100-stimulated Pmel splenocytes or human NSCLC TILs were used as effector cells. Target tumor cells were co-cultured with effector cells in 96-well round-bottom microplates at the indicated effector:target ratios with and without Sirt6 inhibitor. After 6 hr, the percentage of specific LDH release was calculated according to the following formula: % cell lysis=(experimental value−effector cells spontaneous release−target cells spontaneous release)×100/(target cells maximum release−target cells spontaneous release), where “experimental” corresponds to the experimental signal value, “effector spontaneous” to spontaneous release of LDH from effector cells alone, “target spontaneous” to spontaneous release of LDH from target cells alone and “maximum release” to the maximum release of LDH from target cells in medium containing 1% Triton X-100.

[5] = test system: TILs isolated from B16F10 tumors; assay: IFN-γ ELISPOT assay of B16F10 TILs re-challenged with B16F10 cells; conditions: B16F10 TILs re-challenged with B16F10 cells ex vivo, FIG. 7G
Method: Lymphocytes from subcutaneous tumors were isolated by dicing the tissues followed by enzymatic digestion in PBS containing collagenase type 4 (2 mg/ml, Worthington Biochemical) and DNase I (0.25 mg/ml, Sigma-Aldrich) for 45 min with occasional shaking at 37° C. Cell suspensions were then twice filtered through 100 μm and 40 μm cell strainers (Thermo Fisher Scientific) to obtain single-cell suspension followed by a PBS wash and red blood cell lysis using RBC Lysis Buffer (Biolegend). TILs were finally isolated by density gradient centrifugation using Percoll (GE Healthcare) and were further purified using […] MicroBeads Kit™ (Miltenyi Biotec) according to the manufacturer's instructions. T cell purity was greater than 90% (data not shown). Fresh TILs were used directly for phenotypic and metabolic analyses or were cultured in complete RPMI medium for functional assays.
The number of IFN-γ producing cells was evaluated in an ELISPOT assay. […] After washing steps and successive biotinylated anti-IFN-γ antibody (R4-6A2, Mabtech, Inc.) and Streptavidin-HRP (BD Bioscience) labeling, spots were detected using AEC Substrate Kit (BD Biosciences) and counted using an AID ELISPOT Reader System (Autoimmun Diagnostika GmbH).

activated CD3+ T cells [6] = assay: Western blot analysis of activated T cells
Method: Whole cell lysates were prepared using lysis buffer (Pierce RIPA buffer, Thermo Fisher Scientific) supplemented with Complete™ protease inhibitor cocktail and PhosSTOP phosphatase inhibitor cocktail (Roche Applied Science).
Cell lysates (20 μg) or IP samples were loaded onto 10% SDS-PAGE and separated by electrophoresis followed by semi-dry transfer into polyvinylidene fluoride membranes (Immun-Blot® PVDF membrane, Bio-Rad) using Trans-Blot Turbo transfer system (Bio-Rad). After transfer, the membranes were blocked at room temperature with Tris-buffered saline (TBS) containing 0.05% Tween-20 (TBST) and 5% (w/v) non-fat dry milk for 1 hour and then incubated overnight at 4° C. with a specific primary antibody (indicated below). The membranes were washed three times with TBST and then incubated for 1 hour with horseradish peroxidase (HRP)-conjugated goat […] IgG H&L (Abcam, #ab97051, 1:3,000) for regular western blotting analysis, or HRP-conjugated mouse anti-rabbit IgG light-chain specific (Cell Signaling, #93702, 1:1,000) for IP samples. After washing 3 times with TBST, bound antibodies were detected by chemiluminescence using the Pierce™ ECL Western Blotting Substrate and the Super Signal West Femto Maximum Sensitivity Substrate kits (Thermo Fisher Scientific). Image acquisition was performed with the Amersham imager 600 system (GE Healthcare Bio-Sciences).
Immunoblotting was performed using primary antibodies against: Sirt6, H3K9, acetylated-H3K9 and c-Myc (#9402, 1:1,000) from Cell signaling, LDH (#ab52488, 1:5,000), PFKP (#ab204131, 1:2,000), HK1 (#ab150423, 1:1,000), HIF-1α and beta-Actin from Abcam

[7] = activated CD3+ T cells, WB, FIG. 8J

With `O=C(Nc1ccc(O)c(C(=O)O)c1)c1cccc(NC(=O)c2ccco2)c1` [OSS_128167] the “glycolytic flux (ECAR)” value (activated CD3+ T cells [1]; CD3-stimulated CD3+ T cells, OSS 25 μM or 50 μM vs. vehicle (DMSO), FIG. 6A) was “profoundly increased”, the “SRC in response to the mitochondrial decoupling agent (FCCP) (OCR)” value (activated CD3+ T cells [1]; activated T cells, pharmacologic inhibition, FIG. 6G) was “increase” and the “glycolytic activity of TILs (ECAR)” value [2] was “restored”. For the same molecule, the “proliferation (CFSE dilution)” value (OT-II and Pmel T cells) was “increased”, the “granzyme B expression” value [3] was “increases” and the IFN-γ release [4] was “increases”. The “cytotoxic activity against B16F10 cell challenge” value (B16F10 cells) was “superior cytotoxic activity”, the IFN-γ release [5] was “increase” and the “Glut1 protein expression levels” value (activated CD3+ T cells [6]; [7]) was “upregulation”. For the same molecule, the “HK1 protein expression levels” value (activated CD3+ T cells [6]; [7]) was “upregulation”, the “LDHA protein expression levels” value (activated CD3+ T cells [6]; [7]) was “upregulation” and the “PFKP protein expression levels” value (activated CD3+ T cells [6]; [7]) was “upregulation”. The H3K9 acetylation levels (activated CD3+ T cells [6]; activated T cells, FIG. 8D) was “increased” and the HIF-1α expression levels (activated CD3+ T cells [6]; activated T cells, FIG. 8D) was “no effect”.
